Source: patent publication US12427134B2, “Methods of reducing the risk of cardiovascular events in a subject with atrial fibrillation and/or atrial flutter” (priority 2019, dated 2025)

System: hypertriglyceridemic patients with cardiovascular disease or at high risk for cardiovascular disease
Assay: REDUCE-IT: treatment-emergent adverse events and serious adverse events (safety population)
[1] = BMI ≥25 to <30 kg/m^2 (N = 1427)
[2] = No Ezetimibe at baseline (N = 3827)
[3] = Region Eastern Europe (N = 1053)

Experimental: Specification of Variables and Procedures: Safety assessments included adverse events, clinical laboratory measurements (chemistry, hematology), 12-lead ECGs, vital signs (systolic and diastolic blood pressure, heart rate, respiratory rate, and body temperature), weight, waist circumference, and physical examinations as per Study Procedures in Table 1. […] All laboratory test results were evaluated by the investigator as to their clinical significance. Any observations at physical examinations or laboratory values considered by the investigator to be clinically significant were considered an adverse event.
An adverse event can therefore be any unfavorable and/or unintended sign (including an abnormal laboratory finding), symptom, or disease temporally associated with the use of an investigational medication product, whether or not related to the investigational medication product. All adverse events, including observed or volunteered problems, complaints, or symptoms, were recorded on the appropriate CRF. Each adverse event was evaluated for duration, intensity, and causal relationship with the study medication or other factors.
Adverse events, which included clinical laboratory test variables, were monitored from the time of informed consent until study participation was complete. Patients were instructed to report any adverse event that they experienced to the investigator. Beginning with Visit 2, investigators assessed for adverse events at each visit and recorded the event on the appropriate adverse event CRF.
Causality Assessment: The relationship of an adverse event to the administration of the study drug was assessed according to the following definitions: • No (unrelated, not related, no relation)—The time course between the administration of study drug and the occurrence or worsening of the adverse event rules out a causal relationship and another cause (concomitant drugs, therapies, complications, etc.) is suspected. • Yes (related, probably related, possibly related)—The time course between the administration of study drug and the occurrence or worsening of the adverse event is consistent with a causal relationship and no other cause (concomitant drugs, therapies, complications, etc.) can be identified.
Serious Adverse Events: A serious adverse event (SAE) is defined as an adverse event that meets any of the following criteria: • Results in death; • Is life-threatening—The term “life-threatening” in the definition of “serious” refers to an event in which the patient was at risk of death at the time of the event. […] Important medical events that may not result in death, be life threatening, or require hospitalization were considered an SAE when, based upon appropriate medical judgment, they may have jeopardized the patient and may have required medical or surgical intervention to prevent one of the outcomes listed above.
Analysis of Safety: All analyses of safety were conducted on the safety population, which was defined as all randomized patients. The safety assessment was based on the frequency of adverse events, physical exams, vital signs and safety laboratory tests. AEs with new onset during the study between the initiation of study drug and 30 days after the last dose of study drug for each patient was considered treatment-emergent (TEAEs). This included any AE with onset prior to initiation of study drug and increased severity after the treatment initiation.
This included overall incidence rates (regardless of severity and relationship to study drug), and incidence rates for moderate or severe adverse events. A summary of SAEs and adverse events leading to early discontinuation (for ≥30 days) were presented through data listings. Patients who restarted study drug were included in the summary of AEs leading to discontinuation.

SMILES: CC/C=C\C/C=C\C/C=C\C/C=C\C/C=C\CCCC(=O)OCC [AMR101, eicosapentaenoic acid ethyl ester]
- Patients with at least 1 TEAE, % (Age <65 years (N = 2232)): (77.3) %
- TEAE: GI disorders, % (Age <65 years (N = 2232)): (27.9) %
- TEAE: General disorders and administration site condition, % (Age <65 years (N = 2232)): (21.6) %
- TEAE: Musculoskeletal and connective tissue disorders, % (Age <65 years (N = 2232)): (31.4) %
- TEAE: Nervous system disorders, % (Age <65 years (N = 2232)): (20.3) %
- TEAE: Respiratory, thoracic, and mediastinal disorders, % (Age <65 years (N = 2232)): (18.9) %
- Patients with at least 1 TEAE, % (Age ≥65 years (N = 1857)): (87.1) %
- TEAE: GI disorders, % (Age ≥65 years (N = 1857)): (39.2) %
- TEAE: General disorders and administration site condition, % (Age ≥65 years (N = 1857)): (29.5) %
- TEAE: Musculoskeletal and connective tissue disorders, % (Age ≥65 years (N = 1857)): (41.2) %
- TEAE: Nervous system disorders, % (Age ≥65 years (N = 1857)): (29.7) %
- TEAE: Respiratory, thoracic, and mediastinal disorders, % (Age ≥65 years (N = 1857)): (30.5) %
- TEAEs, overall incidence (Asia Pacific region subgroup): 76.9%
- TEAE class nervous system disorders, patients (Asian Pacific region subgroup): 20.8%
- Patients with at least 1 TEAE, % (BMI <25 kg/m^2 (N = 320)): (80.6) %
- TEAE: GI disorders, % (BMI <25 kg/m^2 (N = 320)): (33.8) %
- TEAE: General disorders and administration site condition, % (BMI <25 kg/m^2 (N = 320)): (23.1) %
- TEAE: Musculoskeletal and connective tissue disorders, % (BMI <25 kg/m^2 (N = 320)): (26.9) %
- TEAE: Nervous system disorders, % (BMI <25 kg/m^2 (N = 320)): (22.8) %
- TEAE: Respiratory, thoracic, and mediastinal disorders, % (BMI <25 kg/m^2 (N = 320)): (21.3) %
- Patients with at least 1 TEAE, % [1]: (81.5) %
- TEAE: GI disorders, % [1]: (30.8) %
- TEAE: General disorders and administration site condition, % [1]: (24.0) %
- TEAE: Musculoskeletal and connective tissue disorders, % [1]: (33.4) %
- TEAE: Nervous system disorders, % [1]: (23.6) %
- TEAE: Respiratory, thoracic, and mediastinal disorders, % [1]: (22.7) %
- TEAE class GI disorders, patients (BMI ≥25 to <30 kg/m^2 subgroup): 30.8%
- Patients with at least 1 TEAE, % (BMI ≥30 kg/m^2 (N = 2331)): (82.3) %
- TEAE: GI disorders, % (BMI ≥30 kg/m^2 (N = 2331)): (34.3) %
- TEAE: General disorders and administration site condition, % (BMI ≥30 kg/m^2 (N = 2331)): (26.3) %
- TEAE: Musculoskeletal and connective tissue disorders, % (BMI ≥30 kg/m^2 (N = 2331)): (38.7) %
- TEAE: Nervous system disorders, % (BMI ≥30 kg/m^2 (N = 2331)): (25.5) %
- TEAE: Respiratory, thoracic, and mediastinal disorders, % (BMI ≥30 kg/m^2 (N = 2331)): (25.6) %
- Patients with at least 1 TEAE, % (Baseline Ezetimibe (N = 262)): (92.0) %
- TEAE: GI disorders, % (Baseline Ezetimibe (N = 262)): (37.4) %
- TEAE: General disorders and administration site condition, % (Baseline Ezetimibe (N = 262)): (26.3) %
- TEAE: Musculoskeletal and connective tissue disorders, % (Baseline Ezetimibe (N = 262)): (41.2) %
- TEAE: Nervous system disorders, % (Baseline Ezetimibe (N = 262)): (23.7) %
- TEAE: Respiratory, thoracic, and mediastinal disorders, % (Baseline Ezetimibe (N = 262)): (27.5) %
- Patients with at least 1 TEAE, % (CV Risk Category 1 (N = 2892)): (81.6) %
- TEAE: GI disorders, % (CV Risk Category 1 (N = 2892)): (31.3) %
- TEAE: General disorders and administration site condition, % (CV Risk Category 1 (N = 2892)): (25.3) %
- TEAE: Musculoskeletal and connective tissue disorders, % (CV Risk Category 1 (N = 2892)): (33.6) %
- TEAE: Nervous system disorders, % (CV Risk Category 1 (N = 2892)): (23.4) %
- TEAE: Respiratory, thoracic, and mediastinal disorders, % (CV Risk Category 1 (N = 2892)): (23.4) %
- Patients with at least 1 TEAE, % (CV Risk Category 2 (N = 1197)): (82.1) %
- TEAE: GI disorders, % (CV Risk Category 2 (N = 1197)): (37.2) %
- TEAE: General disorders and administration site condition, % (CV Risk Category 2 (N = 1197)): (24.9) %
- TEAE: Musculoskeletal and connective tissue disorders, % (CV Risk Category 2 (N = 1197)): (41.3) %
- TEAE: Nervous system disorders, % (CV Risk Category 2 (N = 1197)): (27.4) %
- TEAE: Respiratory, thoracic, and mediastinal disorders, % (CV Risk Category 2 (N = 1197)): (26.1) %
- Patients with at least 1 TEAE, % (Female (N = 1162)): (79.9) %
- TEAE: GI disorders, % (Female (N = 1162)): (38.3) %
- TEAE: General disorders and administration site condition, % (Female (N = 1162)): (25.5) %
- TEAE: Musculoskeletal and connective tissue disorders, % (Female (N = 1162)): (37.6) %
- TEAE: Nervous system disorders, % (Female (N = 1162)): (27.6) %
- TEAE: Respiratory, thoracic, and mediastinal disorders, % (Female (N = 1162)): (23.4) %
- Patients with at least 1 TEAE, % (Male (N = 2927)): (82.5) %
- TEAE: GI disorders, % (Male (N = 2927)): (30.9) %
- TEAE: General disorders and administration site condition, % (Male (N = 2927)): (25.1) %
- TEAE: Musculoskeletal and connective tissue disorders, % (Male (N = 2927)): (35.2) %
- TEAE: Nervous system disorders, % (Male (N = 2927)): (23.3) %
- TEAE: Respiratory, thoracic, and mediastinal disorders, % (Male (N = 2927)): (24.5) %
- Patients with at least 1 TEAE, % [2]: (81.1) %
- TEAE: GI disorders, % [2]: (32.7) %
- TEAE: General disorders and administration site condition, % [2]: (25.1) %
- TEAE: Musculoskeletal and connective tissue disorders, % [2]: (35.5) %
- TEAE: Nervous system disorders, % [2]: (24.6) %
- TEAE: Respiratory, thoracic, and mediastinal disorders, % [2]: (24.0) %
- Patients with at least 1 TEAE, % (Race Non-white (N = 398)): (81.4) %
- TEAE: GI disorders, % (Race Non-white (N = 398)): (28.9) %
- TEAE: General disorders and administration site condition, % (Race Non-white (N = 398)): (25.4) %
- TEAE: Musculoskeletal and connective tissue disorders, % (Race Non-white (N = 398)): (30.9) %
- TEAE: Nervous system disorders, % (Race Non-white (N = 398)): (23.4) %
- TEAE: Respiratory, thoracic, and mediastinal disorders, % (Race Non-white (N = 398)): (23.9) %
- Patients with at least 1 TEAE, % (Race White (N = 3691)): (81.8) %
- TEAE: GI disorders, % (Race White (N = 3691)): (33.5) %
- TEAE: General disorders and administration site condition, % (Race White (N = 3691)): (25.2) %
- TEAE: Musculoskeletal and connective tissue disorders, % (Race White (N = 3691)): (36.4) %
- TEAE: Nervous system disorders, % (Race White (N = 3691)): (24.7) %
- TEAE: Respiratory, thoracic, and mediastinal disorders, % (Race White (N = 3691)): (24.2) %
- Patients with at least 1 TEAE, % (Region Asia Pacific (N = 130)): (76.9) %
- TEAE: GI disorders, % (Region Asia Pacific (N = 130)): (18.5) %
- TEAE: General disorders and administration site condition, % (Region Asia Pacific (N = 130)): (22.3) %
- TEAE: Musculoskeletal and connective tissue disorders, % (Region Asia Pacific (N = 130)): (17.7) %
- TEAE: Nervous system disorders, % (Region Asia Pacific (N = 130)): (20.8) %
- TEAE: Respiratory, thoracic, and mediastinal disorders, % (Region Asia Pacific (N = 130)): (17.7) %
- Patients with at least 1 TEAE, % [3]: (58.1) %
- TEAE: GI disorders, % [3]: (11.9) %
- Patients with at least 1 TEAE, % (Region Westernized (N = 2906)): (90.5) %
- TEAE: GI disorders, % (Region Westernized (N = 2906)): (41.3) %
- TEAE: General disorders and administration site condition, % (Region Westernized (N = 2906)): (32.2) %
- TEAE: Musculoskeletal and connective tissue disorders, % (Region Westernized (N = 2906)): (46.4) %
- TEAE: Nervous system disorders, % (Region Westernized (N = 2906)): (30.0) %
